Source: patent US9249087B2, “HDAC inhibitors and therapeutic methods using the same” (THE BOARD OF TRUSTEES OF THE UNIVERSITY OF ILLINOIS, priority 2011, dated 2016)
Counter-ions that a name gives are not always drawn. Like-named read-outs stand apart in the source and are kept apart here.

Experiments:
Assay type in all cases: biochemical
[1] = molecular target: Human HDAC6 (Homo sapiens (Human), UniProt Q9UBN7); test: HDAC6 fluorogenic peptide deacetylation inhibition assay; conditions: for HDAC6 Selectivity (HDAC1/HDAC6): ratio HDAC1 IC50/HDAC6 IC50; for BEI: binding efficiency index, BEI=pIC50/MW, MW in kDa
Human HDAC6, sequence (Q9UBN7 whole entry): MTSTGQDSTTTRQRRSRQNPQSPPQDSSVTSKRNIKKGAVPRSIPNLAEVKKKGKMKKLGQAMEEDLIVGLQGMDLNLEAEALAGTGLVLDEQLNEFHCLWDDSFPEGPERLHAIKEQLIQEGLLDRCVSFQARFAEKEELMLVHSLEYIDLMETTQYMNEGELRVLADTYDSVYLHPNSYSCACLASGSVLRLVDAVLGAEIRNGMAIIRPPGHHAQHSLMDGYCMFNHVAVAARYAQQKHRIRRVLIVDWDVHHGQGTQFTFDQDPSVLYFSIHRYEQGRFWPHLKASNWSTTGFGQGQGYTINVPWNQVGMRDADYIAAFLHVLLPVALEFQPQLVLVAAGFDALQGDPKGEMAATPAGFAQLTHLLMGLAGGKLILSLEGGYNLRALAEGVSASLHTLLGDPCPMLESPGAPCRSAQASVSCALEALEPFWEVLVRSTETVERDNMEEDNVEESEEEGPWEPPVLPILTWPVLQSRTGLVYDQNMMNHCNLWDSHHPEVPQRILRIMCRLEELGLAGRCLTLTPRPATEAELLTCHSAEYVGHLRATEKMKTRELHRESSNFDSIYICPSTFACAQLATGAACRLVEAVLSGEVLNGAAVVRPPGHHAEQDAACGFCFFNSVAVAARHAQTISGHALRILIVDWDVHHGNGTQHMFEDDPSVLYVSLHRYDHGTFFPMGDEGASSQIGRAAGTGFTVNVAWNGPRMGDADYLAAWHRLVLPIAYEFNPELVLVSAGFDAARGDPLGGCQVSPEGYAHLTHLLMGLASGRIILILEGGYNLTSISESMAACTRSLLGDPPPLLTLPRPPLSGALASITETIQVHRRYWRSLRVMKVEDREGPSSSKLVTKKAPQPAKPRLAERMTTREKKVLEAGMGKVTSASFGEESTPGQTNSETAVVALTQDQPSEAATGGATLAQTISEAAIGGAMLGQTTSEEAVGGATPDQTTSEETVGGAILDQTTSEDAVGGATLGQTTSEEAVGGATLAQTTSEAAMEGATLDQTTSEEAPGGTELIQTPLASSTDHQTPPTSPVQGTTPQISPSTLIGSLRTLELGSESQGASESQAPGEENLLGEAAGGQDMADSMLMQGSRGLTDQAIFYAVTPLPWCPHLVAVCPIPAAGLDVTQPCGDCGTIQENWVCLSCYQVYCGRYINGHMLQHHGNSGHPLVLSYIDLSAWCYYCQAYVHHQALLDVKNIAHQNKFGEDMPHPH

[2] = molecular target: Human HDAC1 (Homo sapiens (Human), UniProt Q13547); test: HDAC1 fluorogenic peptide deacetylation inhibition assay
Human HDAC1, sequence (Q13547 whole entry): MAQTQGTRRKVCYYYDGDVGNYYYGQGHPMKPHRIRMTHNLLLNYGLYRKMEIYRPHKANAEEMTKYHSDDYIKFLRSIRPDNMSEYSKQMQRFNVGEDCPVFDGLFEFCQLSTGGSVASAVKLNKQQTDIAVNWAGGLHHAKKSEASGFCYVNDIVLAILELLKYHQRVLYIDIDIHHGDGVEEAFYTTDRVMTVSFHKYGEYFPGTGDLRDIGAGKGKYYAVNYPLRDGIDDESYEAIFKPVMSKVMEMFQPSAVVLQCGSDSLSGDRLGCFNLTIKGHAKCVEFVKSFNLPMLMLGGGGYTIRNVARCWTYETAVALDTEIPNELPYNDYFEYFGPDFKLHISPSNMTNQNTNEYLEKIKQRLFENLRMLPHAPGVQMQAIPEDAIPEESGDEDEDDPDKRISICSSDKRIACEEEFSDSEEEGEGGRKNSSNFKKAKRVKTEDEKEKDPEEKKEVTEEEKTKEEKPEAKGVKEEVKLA

[3] = molecular target: HDAC8 (Homo sapiens (Human), UniProt Q9BY41); test: HDAC8 inhibition assay (fluorogenic diacyl peptide)
HDAC8, sequence (Q9BY41 whole entry, canonical isoform): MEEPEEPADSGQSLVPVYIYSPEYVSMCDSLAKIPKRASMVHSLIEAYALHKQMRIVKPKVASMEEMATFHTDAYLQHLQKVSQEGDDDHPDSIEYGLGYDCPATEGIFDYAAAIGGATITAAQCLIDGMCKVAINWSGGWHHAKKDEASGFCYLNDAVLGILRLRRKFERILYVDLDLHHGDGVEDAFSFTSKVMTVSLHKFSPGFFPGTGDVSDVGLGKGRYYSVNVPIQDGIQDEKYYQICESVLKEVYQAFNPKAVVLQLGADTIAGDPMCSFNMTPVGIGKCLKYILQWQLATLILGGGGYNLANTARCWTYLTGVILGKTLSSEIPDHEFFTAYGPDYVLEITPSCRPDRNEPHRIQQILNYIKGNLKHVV

[4] = average of two experiments, read-out: HDAC Isoform IC50 (μM) 6
[5] = average of two experiments, read-out: HDAC Isoform IC50 (μM) 1
[6] = average of two experiments, read-out: HDAC Isoform IC50 (μM) 8
[7] = Table 3, mean of two experiments ± standard deviation, read-out: HDAC8 IC50
[8] = Table 3, mean of two experiments ± standard deviation, read-out: HDAC1 IC50
[9] = Table 3, mean of two experiments ± standard deviation, read-out: HDAC6 IC50

IC50 [1, 4] | IC50 [2, 5] | SMILES | further results
0.00017 µM | 0.623 µM | CS(=O)(=O)NCCc1cn(Cc2ccc(C(=O)NO)cc2)c2ccccc12 [Compound 30, N-Hydroxy-4-((3-(2-(methylsulfonamido)ethyl)-1H-indol-1-yl)methyl)benzamide] | 
 |  | O=C(NO)c1ccc(Cn2cnc3cncnc32)cc1 [drawing 143] | HDAC6 Selectivity (HDAC1/HDAC6) [1]: 270
> 30 µM | > 30 µM | CC(=O)c1ccc(Cn2ccc3ccccc32)cc1 [Compound 23, 1-(4-((1H-Indol-1-yl)methyl)phenyl)ethanone] | 
 |  | O=C(NO)c1ccc(Cc2ccncc2)cc1 [drawing 145] | HDAC6 Selectivity (HDAC1/HDAC6) [1]: 181
0.00146 µM | 3.09 µM | Cc1c(CN(C)C)c2ccccc2n1Cc1ccc(C(=O)NO)cc1 [Compound 21, 4-((3-((Dimethylamino)methyl)-2-methyl-1H-indol-1-yl)methyl)-N-hydroxybenzamide] | 
0.00408 µM | 12.2 µM | Cc1c(C)n(Cc2ccc(C(=O)NO)cc2)c2ccccc12 [Compound 8, 4-((2,3-Dimethyl-1H-indol-1-yl)methyl)-N-hydroxybenzamide] | 
0.0294 µM | 8.54 µM | O=C(NO)c1ccc(Cn2cnc3ccccc32)cc1 [Compound 27, 4-((1H-Benzo[d]imidazol-1-yl)methyl)-N-hydroxybenzamide.TFA] | 
 |  | O=C(NO)c1ccc(Cn2cccc2)cc1 [drawing 147] | HDAC6 Selectivity (HDAC1/HDAC6) [1]: 183
 |  | O=C(NO)c1ccc(CN(c2ccccc2)c2ccccc2)cc1 [drawing 162] | IC50 [3, 7]: 2.38 ± 0.25 µM; BEI [1]: 26.3; IC50 [2, 8]: 6.66 ± 0.51 µM
0.047 µM | 27.7 µM | CC(C)c1nc2ccccc2n1Cc1ccc(C(=O)NO)cc1 [Compound 39, N-Hydroxy-4-((2-isopropyl-1H-benzo[d]imidazol-1-yl)methyl)benzamide] | 
 |  | Cc1cc2ccccc2n1Cc1ccc(C(=O)NO)cc1 [drawing 158] | IC50 [3, 7]: 0.397 ± 0.099 µM; IC50 [1, 9]: 0.0025 ± 0.0004 µM; BEI [1]: 30.7; IC50 [2, 8]: 5.34 ± 0.16 µM
0.0109 µM | 1.47 µM | O=C(NO)c1ccc(Cn2cccn2)cc1 [Compound 43, 4-((1H-Pyrazol-1-yl)methyl)-N-hydroxybenzamide] | 
6.28 µM | > 30 µM | CCN(CC)Cc1ccc(C(=O)NO)cc1 [Compound 51, 4-((Diethylamino)methyl)-N-hydroxybenzamide] | IC50 [3, 6]: 9.43 µM
0.00348 µM | 0.94 µM | O=C(NO)c1ccc(Cn2cnc3cncnc32)cc1 [Compound 12, 4-((9H-Purin-9-yl)methyl)-N-hydroxybenzamide] | 
0.0092 µM | 8.79 µM | Cc1nc2ccccc2n1Cc1ccc(C(=O)NO)cc1 [Compound 32, N-hydroxy-4-((2-methyl-1H-benzo[d]imidazol-1-yl)methyl)benzamide] | 
 |  | O=C(NO)c1ccc(Cn2cc(Cc3ccccc3)c3ccccc32)cc1 [drawing 140] | HDAC6 Selectivity (HDAC1/HDAC6) [1]: 451
 |  | O=C(NO)c1ccc(Cn2ccc3ccccc32)cc1 [drawing 157] | IC50 [3, 7]: 0.417 ± 0.04 µM; IC50 [1, 9]: 0.0097 ± 0.0003 µM; BEI [1]: 30.1; IC50 [2, 8]: 5.83 ± 0.7 µM

IC50 [1, 4] | IC50 [2, 5] | SMILES | further results
 |  | O=C(NO)c1ccc(CN2CCCC2)cc1 [drawing 150] | HDAC6 Selectivity (HDAC1/HDAC6) [1]: 54
0.124 µM | 23.8 µM | CC(C)N(Cc1ccc(C(=O)NO)cc1)C(C)C [Compound 53, 4-((Diisopropylamino)methyl)-N-hydroxybenzamide] | IC50 [3, 6]: 1.92 µM
0.0142 µM | 3.56 µM | O=C(NO)c1ccc(Cn2cnc3ncncc32)cc1 [Compound 14, 4-((7H-Purin-7-yl)methyl)-N-hydroxybenzamide] | 
0.047 µM | 14.7 µM | CC(=O)NCCCc1nc2ccccc2n1Cc1ccc(C(=O)NO)cc1 [Compound 36, 4-((2-(3-Acetamidopropyl)-1H-benzo[d]imidazol-1-yl)methyl)-N-hydroxybenzamide.TFA] | 
 |  | Cc1cn(Cc2ccc(C(=O)NO)cc2)c2ccccc12 [drawing 159] | IC50 [3, 7]: 0.911 ± 0.042 µM; IC50 [1, 9]: 0.0051 ± 0.0008 µM; BEI [1]: 29.6; IC50 [2, 8]: 6.79 ± 0.29 µM
 |  | CN(C)c1ccc(Cc2ccc(C(=O)NO)cc2)cc1 [drawing 146] | HDAC6 Selectivity (HDAC1/HDAC6) [1]: 577
0.00146 µM | 3.09 µM | Cc1c(CN)c2ccccc2n1Cc1ccc(C(=O)NO)cc1 | HDAC6 Selectivity (HDAC1/HDAC6) [1]: 2116
1.25 µM | > 30 µM | COC[C@H]1CCCN1Cc1ccc(C(=O)NO)cc1 [Compound 61] | IC50 [3, 6]: 5.59 µM
0.0701 µM | 12.2 µM | CN(C)c1cccc(Cc2ccc(C(=O)NO)cc2)c1 [Compound 49, 4-(3-(Dimethylamino)benzyl)-N-hydroxybenzamide] | 
4.5 µM | 6.66 µM | O=C(NO)c1ccc(CN(c2ccccc2)c2ccccc2)cc1 [Compound 55, 4-((Diphenylamino)methyl)-N-hydroxybenzamide] | IC50 [3, 6]: 2.38 µM; selectivity for HDAC6 vs HDAC8 [1]: over 500 fold
> 30 µM | > 30 µM | NC(=O)c1ccc(Cn2ccc3ccccc32)cc1 [Compound 22, 4-((1H-Indol-1-yl)methyl)benzamide] | 
0.126 µM | 52.4 µM | CN(C)CCc1nc2ccccc2n1Cc1ccc(C(=O)NO)cc1 [Compound 38, 4-((2-(2-(Dimethylamino)ethyl)-1H-benzo[d]imidazol-1-yl)methyl)-N-hydroxybenzamide] | 
 |  | CCN(CC)Cc1ccc(C(=O)NO)cc1 [drawing 153] | HDAC6 Selectivity (HDAC1/HDAC6) [1]: >5
 |  | O=C(NO)c1ccc(Cn2cnc3ncncc32)cc1 [drawing 144] | HDAC6 Selectivity (HDAC1/HDAC6) [1]: 251
 |  | O=C(NO)c1ccc(Cn2cccn2)cc1 [drawing 148] | HDAC6 Selectivity (HDAC1/HDAC6) [1]: 135
0.15 µM | 27.9 µM | COC[C@@H]1CCCN1Cc1ccc(C(=O)NO)cc1 [Compound 59, (S)-N-Hydroxy-4-((2-(methoxymethyl)pyrrolidin-1-yl)methyl)benzamide.TFA] | IC50 [3, 6]: 1.82 µM

SMILES | IC50 [1, 4] | IC50 [2, 5] | further results
CN(C)c1ccc(Cc2ccc(C(=O)NO)cc2)cc1 [Compound 47, 4-(4-(Dimethylamino)benzyl)-N-hydroxybenzamide] | 0.0119 µM | 6.87 µM | 
O=C(NO)c1ccc(CN2CCCC2)cc1 [Compound 57, N-Hydroxy-4-(pyrrolidin-1-ylmethyl)benzamide.TFA] | 0.54 µM | 29 µM | IC50 [3, 6]: 1.2 µM
O=C(NO)c1ccc(Cn2cccc2)cc1 [Compound 41, 4-((1H-Pyrrol-1-yl)methyl)-N-hydroxybenzamide] | 0.0313 µM | 5.73 µM | 
CN1CCN(CCc2cn(Cc3ccc(C(=O)NO)cc3)c3ccccc23)CC1 [Compound 17, N-Hydroxy-4-{3-[2-(4-methyl-piperazin-1-yl)-ethyl]-indol-1-ylmethyl}-benzamide] | 0.00294 µM | 1.23 µM | IC50 [3, 6]: 0.174 µM
O=C(NO)c1ccc(Cc2ccncc2)cc1 [Compound 45, N-Hydroxy-4-(pyridin-4-ylmethyl)benzamide] | 0.0358 µM | 6.47 µM | 
CN1CCN(CCc2cn(Cc3ccc(C(=O)NO)cc3)c3ccccc23)CC1 [drawing 142] | 0.00294 µM | 1.23 µM | IC50 [3, 6]: 0.174 µM; HDAC6 Selectivity (HDAC1/HDAC6) [1]: 418
O=C(NO)c1ccc(Cn2cc(Cc3ccccc3)c3ccccc32)cc1 [Compound 10, 4-((3-Benzyl-1H-indol-1-yl)methyl)-N-hydroxybenzamide] | 0.0293 µM | 13.2 µM | IC50 [3, 6]: 0.324 µM
